The source of these data is US20250145639A1, “MUTANT KRAS MODULATORS AND USES THEREOF” (NEWAVE PHARMACEUTICAL INC., priority 2021, published 2025).

Assay [1] addresses T1, HIS-KRAS (G12C, aa 2-185) (Homo sapiens, UniProt P01116, G12C).
T1 construct: HIS-KRAS (G12C, aa 2-185, Sino biological); purchased Sino biological
Briefly: KRas G12C binding assay (TR-FRET, SOS1-mediated BODIPY FL GTP nucleotide exchange). To be noted: GDP-loaded HIS-KRAS (G12C) 3 nM, 1 hour pre-incubation with compound, 4 hours with SOS1 ExD and BODIPY FL GTP at 25° C. Here is the method:
Biological Example 1: KRas G12C Binding Assay
(§1) HIS-KRAS (G12C, aa 2-185, Sino biological) was diluted to 5 uM in EDTA buffer (20 mM HEPES, pH 7.4, 50 mM NaCl, 10 mM EDTA, 0.01% (v/v) Tween-20) and incubated for 30 min at 25° C. The EDTA pretreated HIS-KRAS (G12C) was diluted to 12 nM in assay buffer (25 mM HEPES, pH 7.4, 120 mM NaCl, 5 mM MgCl 2, 1 mM DTT, 0.01% (v/v) Tween 20, 0.1% (w/v) BSA) containing 120 nM GDP (Sigma) and MAb Anti 6HIS—Tb cryptate Gold (Cisbio) and incubated for 1 hour at 25° C. to prepare GDP-loaded HIS-KRAS (G12C). The GDP-loaded HIS-KRAS (G12C) was pre-incubation with diluted compounds in a 384-well plate (Greiner) for 1 hour, then purified SOS1 ExD (Flag tag, aa 564-1049) and BODIPY™ FL GTP (Invitrogen) were added to the assay wells (Final concentration: 3 nM HIS-KRAS (G12C), 2 uM SOS1 ExD, 80 nM BODIPY™ FL GTP, 21 ng/mL MAb Anti 6HIS—Tb cryptate Gold) and incubated for 4 hours at 25° C. TR-FRET signals were then read on Tecan Spark multimode microplate reader. The parameters were F486: Excitation 340 (35) nm, Emission 486 (10) nm, Lag time 100 μs, Integration time 200 μs; F515: Excitation 340 (35) nm, Emission 515 (10) nm, Lag time 100 μs, Integration time 200 μs. TR-FRET ratios for each individual wells were calculated by equation: TR-FRET ratio=(Signal F515/Signal F486)*10000. Then the data were analyzed using a 4-parameter logistic model to calculate IC50 values. The following table lists the IC50 values of certain compounds of the invention.

Another assay concerns the target HIS-KRAS (G12V) (Homo sapiens, UniProt P01116, G12V). Description: KRas G12V binding assay (TR-FRET, SOS1-mediated BODIPY FL GTP nucleotide exchange). To be noted: GDP-loaded HIS-KRAS (G12V) 3 nM, 1 hour pre-incubation with compound, 4 hours with SOS1 ExD and BODIPY FL GTP at 25° C. As for the experimental part: Biological Example 3: KRas G12V Binding Assay
as §1, with “(G12V)” for “(G12C, aa 2-185, Sino biological)”, “(G12V)” for “(G12C)”, “(G12V).” for “(G12C).”, “(G12V),” for “(G12C),”
(In general: Time-resolved FRET reads energy transfer from a long-lived donor to a nearby acceptor.)

Assay [2] concerns the target T2, GDP-loaded, histidine-tagged, truncated (1-169) KRAS G12C (Homo sapiens, UniProt P01116, G12C).
T2 construct: histidine-tagged, truncated (1-169) KRAS proteins; His
Briefly: KRas G12C in vitro covalent MS-based assay. Format: binding. The conditions noted are these: KRAS protein 2 uM, denaturing SEC-MS intact mass. As for the experimental part: Biological Example 2: KRas G12C In Vitro Covalent MS-Based Assay
GDP-loaded, histidine-tagged, truncated (1-169) KRAS proteins (G12C, WT, G13D, as indicated) at 2 uM final concentration were incubated with the test compounds at the doses and time points indicated in a buffer containing 20 mmol/L HEPES pH 7.5, 150 mmol/L NaCl, 1 mmol/L MgCl 2, and 1 mmol/L DTT. Reactions were quenched by adding formic acid to 0.2%. Samples were buffer exchanged and analyzed by denaturing SEC-MS (Orbitrap Eclipse), Mobile phase: 30% ACN, 0.1% formic acid, 0.02% TFA. Raw data were analyzed by charge state deconvolution with BioPharma Finder 4.1 Intact Mass, ReSpect and Sliding Window algorithms. The masses were calculated via software for KRAS_G12C theoretical sequence and experimental compounds.

HIS-KRAS (G12V), sequence (P01116 1-188 isoform P01116-2 G12V): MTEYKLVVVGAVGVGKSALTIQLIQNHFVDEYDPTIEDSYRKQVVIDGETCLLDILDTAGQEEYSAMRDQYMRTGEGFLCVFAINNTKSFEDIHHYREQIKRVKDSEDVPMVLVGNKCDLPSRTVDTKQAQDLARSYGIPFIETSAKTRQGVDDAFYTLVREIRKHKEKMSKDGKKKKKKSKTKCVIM
T1 sequence (P01116 2-185 isoform P01116-2 G12C): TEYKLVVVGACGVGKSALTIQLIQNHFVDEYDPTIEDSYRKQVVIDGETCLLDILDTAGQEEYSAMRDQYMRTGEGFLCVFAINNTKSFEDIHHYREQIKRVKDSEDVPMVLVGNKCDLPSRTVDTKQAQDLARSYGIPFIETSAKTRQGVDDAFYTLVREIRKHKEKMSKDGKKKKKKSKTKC
T2 sequence (P01116 1-169 isoform P01116-2 G12C): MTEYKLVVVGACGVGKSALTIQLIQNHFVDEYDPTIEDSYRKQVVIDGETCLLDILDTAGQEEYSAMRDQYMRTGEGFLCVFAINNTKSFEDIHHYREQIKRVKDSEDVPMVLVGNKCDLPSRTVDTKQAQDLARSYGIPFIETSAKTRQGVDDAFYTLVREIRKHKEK

As a reminder, the IC50 is the concentration that gives 50% inhibition. For `C#Cc1cccc2cc(O)cc(-c3ncc4c(N5CC6CCC(C5)N6C(=O)C=C)nc(OC[C@@]56CCCN5C[C@H](F)C6)nc4c3F)c12` [Example 1, 1-[3-(2-{[(2R,7aS)-2-fluoro-hexahydropyrrolizin-7a-yl]methoxy}-7-(8-ethynyl-3-hydroxynaphthalen-1-yl)-8-fluoropyrido[4,3-d]pyrimidin-4-yl)-3,8-diazabicyclo[3.2.1]octan-8-yl]prop-2-en-1-one], the IC50 in assay [1] is 10.6 nM; on HIS-KRAS (G12V) it was 4.37 nM.
For `C#Cc1c(F)ccc2cc(O)cc(-c3ncc4c(N(C)C[C@@H]5CCCN5C(=O)C=C)nc(OC[C@@]56CCCN5C[C@H](F)C6)nc4c3F)c12` [Example 2, 1-[(2S)-2-{[(2-{[(2R,7aS)-2-fluoro-hexahydropyrrolizin-7a-yl]methoxy}-7-(8-ethynyl-7-fluoro-3-hydroxynaphthalen-1-yl)-8-fluoropyrido[4,3-d]pyrimidin-4-yl)(methyl)amino]methyl}pyrrolidin-1-yl]prop-2-en-1-one], the IC50 in assay [1] was found to be 0.41 nM; at HIS-KRAS (G12V), 0.54 nM. Further, the “Binding Model” value in assay [2] is “Covalent binding”.
For the molecule `C#Cc1c(F)ccc2cccc(-c3ncc4c(N5C[C@H]6CC[C@@H](C5)N6C(=O)C=C)nc(OCC56CCCN5CCC6)nc4c3F)c12` [Example 3, 1-((1R,5S)-3-(7-(8-ethynyl-7-fluoronaphthalen-1-yl)-8-fluoro-2-((tetrahydro-1H-pyrrolizin-7a(5H)-yl)methoxy)pyrido[4,3-d]pyrimidin-4-yl)-3,8-diazabicyclo[3.2.1]octan-8-yl)prop-2-en-1-one], the IC50 was determined as 3.19 nM in assay [1] and 39.1 nM on HIS-KRAS (G12V).
On the same counts, the results for `C#Cc1c(F)ccc2cc(O)cc(-c3ncc4c(N5C[C@H]6CC[C@@H](C5)N6C(=O)C=C)nc(N5CC(N(C)C)C5)nc4c3F)c12` [Example 4, 1-((1R,5S)-3-(2-(3-(dimethylamino)azetidin-1-yl)-7-(8-ethynyl-7-fluoro-3-hydroxynaphthalen-1-yl)-8-fluoropyrido[4,3-d]pyrimidin-4-yl)-3,8-diazabicyclo[3.2.1]octan-8-yl)prop-2-en-1-one] are 3.34 nM and 95.8 nM.
For the molecule `C#Cc1c(F)ccc2cc(O)cc(-c3ncc4c(N5C[C@H]6CC[C@@H](C5)N6C(=O)C=C)nc(OCC56CCCN5CCC6)nc4c3F)c12` [Example 5, 1-((1R,5S)-3-(7-(8-ethynyl-7-fluoro-3-hydroxynaphthalen-1-yl)-8-fluoro-2-((tetrahydro-1H-pyrrolizin-7a(5H)-yl)methoxy)pyrido[4,3-d]pyrimidin-4-yl)-3,8-diazabicyclo[3.2.1]octan-8-yl)prop-2-en-1-one], the 50% inhibitory concentration (IC50) in assay [1] turned out to be 0.37 nM; on HIS-KRAS (G12V), 0.19 nM. The “Binding Model” value in assay [2] is “Covalent binding”.
As to `C#Cc1c(F)ccc2cc(O)cc(-c3ncc4c(N5C[C@H]6CC[C@@H](C5)N6C(=O)C=C)nc(OC[C@@H]5CCCN5C)nc4c3F)c12` [Example 6, 1-((1R,5S)-3-(7-(8-ethynyl-7-fluoro-3-hydroxynaphthalen-1-yl)-8-fluoro-2-(((S)-1-methylpyrrolidin-2-yl)methoxy)pyrido[4,3-d]pyrimidin-4-yl)-3,8-diazabicyclo[3.2.1]octan-8-yl)prop-2-en-1-one], the IC50 in assay [1] turned out to be 0.36 nM; on HIS-KRAS (G12V), 0.38 nM.
As to `C#Cc1c(F)ccc2cc(O)cc(-c3ncc4c(N5C[C@H]6CC[C@@H](C5)N6C(=O)C=C)nc(OC[C@@H]5CCCCN5C)nc4c3F)c12` [Example 7, 1-((1R,5S)-3-(7-(8-ethynyl-7-fluoro-3-hydroxynaphthalen-1-yl)-8-fluoro-2-(((S)-1-methylpiperidin-2-yl)methoxy)pyrido[4,3-d]pyrimidin-4-yl)-3,8-diazabicyclo[3.2.1]octan-8-yl)prop-2-en-1-one], the IC50 in assay [1] came out at 0.41 nM; on HIS-KRAS (G12V), 5.87 nM.
Take `C#Cc1c(F)ccc2cc(O)cc(-c3ncc4c(NCC5(N(C)C(=O)C=C)CCC5)nc(OCC56CCCN5CCC6)nc4c3F)c12` [Example 10, N-(1-(((7-(8-ethynyl-7-fluoro-3-hydroxynaphthalen-1-yl)-8-fluoro-2-((tetrahydro-1H-pyrrolizin-7a(5H)-yl)methoxy)pyrido[4,3-d]pyrimidin-4-yl)amino)methyl)cyclobutyl)-N-methylacrylamide]: the IC50 in assay [1] is 2.7 nM; on HIS-KRAS (G12V), 5.1 nM.
In the same order, the values of `C#Cc1c(F)ccc2cc(O)cc(-c3ncc4c(NCC5(N(C)C(=O)C=C)CCCC5)nc(OCC56CCCN5CCC6)nc4c3F)c12` [Example 11, N-(1-(((7-(8-ethynyl-7-fluoro-3-hydroxynaphthalen-1-yl)-8-fluoro-2-((tetrahydro-1H-pyrrolizin-7a(5H)-yl)methoxy)pyrido[4,3-d]pyrimidin-4-yl)amino)methyl)cyclopentyl)-N-methylacrylamide] are 1.6 nM and 3.5 nM.
With `C#Cc1c(F)ccc2cc(O)cc(-c3ncc4c(N5C[C@H]6CC[C@@H](C5)N6C(=O)C=C)nc(OC[C@]5(C)CCCN5C)nc4c3F)c12` [Example 12, 1-((1R,5S)-3-(2-(((S)-1,2-dimethylpyrrolidin-2-yl)methoxy)-7-(8-ethynyl-7-fluoro-3-hydroxynaphthalen-1-yl)-8-fluoropyrido[4,3-d]pyrimidin-4-yl)-3,8-diazabicyclo[3.2.1]octan-8-yl)prop-2-en-1-one], the IC50 turned out to be 1.5 nM in assay [1] and 49.7 nM at HIS-KRAS (G12V).
In the same order, the values of `C#Cc1c(F)ccc2cc(O)cc(-c3ncc4c(N5C[C@H]6CC[C@@H](C5)N6C(=O)C=C)nc(OC[C@]5(C)C[C@@H](F)CN5C)nc4c3F)c12` [Example 13, 1-((1R,5S)-3-(7-(8-ethynyl-7-fluoro-3-hydroxynaphthalen-1-yl)-8-fluoro-2-(((2S,4R)-4-fluoro-1,2-dimethylpyrrolidin-2-yl)methoxy)pyrido[4,3-d]pyrimidin-4-yl)-3,8-diazabicyclo[3.2.1]octan-8-yl)prop-2-en-1-one] are 0.96 nM and 13.7 nM.
In the case of `C#Cc1c(F)ccc2cc(O)cc(-c3ncc4c(N5C[C@H]6CC[C@@H](C5)N6C(=O)C=C)nc(OC[C@@]5(C)C[C@@H](F)CN5C)nc4c3F)c12` [Example 14, 1-((1R,5S)-3-(7-(8-ethynyl-7-fluoro-3-hydroxynaphthalen-1-yl)-8-fluoro-2-(((2R,4R)-4-fluoro-1,2-dimethylpyrrolidin-2-yl)methoxy)pyrido[4,3-d]pyrimidin-4-yl)-3,8-diazabicyclo[3.2.1]octan-8-yl)prop-2-en-1-one], in assay [1], the half-inhibitory concentration (IC50) is 0.99 nM.
